Assay results reported in patent US20130005710A1, “AMINOPYRIDINE DERIVATIVE” (priority 2009, published 2013).

Columns and labels:
[1] = test system: rat mixed glial culture; test: Neurogenesis promoting effect in rat mixed glial culture (neuronal differentiation, beta-tubulin III ELISA); assay type: cell-based; details: Rattus norvegicus, 72 h, 1 μM compound + rhIGF-1 100 ng/ml, 3 days; control (only rhIGF-1) = 100%; absorbance 450 nm; read-out: Ratio of absorbance of compound-supplemented group to control (%)
Procedure: The hippocampus and the cerebral cortex were excised from each of 3-day-old SD rats. A cell suspension was prepared therefrom using a neuron dispersion kit (Sumitomo Bakelite Co., Ltd., MB-X9901) and inoculated at concentration of 10^5 cells/well to a 96-well plate coated with type I collagen (AGC Techno Glass Co., Ltd., 4860-010). The cells were cultured in a growth medium (D-MEM/F12 containing 10% FBS and PS) at 37° C. for 4 days under 5% CO2 conditions.
After the culture, the medium was replaced by a differentiation medium (D-MEM/F12 containing PS), and rhIGF-1 (R&D Systems, 291-G1-250, final concentration: 100 ng/ml) and 1 μM compound were added thereto. The cells were further cultured for 3 days. The cultured cells were fixed in 4% paraformaldehyde-PBS (Muto Pure Chemicals Co., Ltd.), subjected to membrane permeation treatment with 0.1% Triton X-100 PBS, and blocked with Block Ace solution (DS Pharma Biomedical Co., Ltd., UK-B80). Anti-neuron-specific class III beta-tubulin Antibody (R&D Systems, MAB1195, clone Tuj-1) was diluted 1000-fold and used as a primary antibody. Anti-Mouse Ig, HRP-Linked F(ab′)2 Fragment Sheep (GE Healthcare, NA9310) was diluted 10000-fold and used as a secondary antibody. A plate washer (BIO-TEK INSTRUMENTS ELX405) was used in washing operation. TMB Microwell Peroxidase Substrate System (Kirkegaard & Perry Laboratories, 50-76-00) was used in color reaction, which was performed for 10 minutes and stopped by addition of 1 M phosphoric acid. Absorbance at 450 nm was measured using a plate reader (Labsystems Multiskan BICHROMATIC).
The rate of increase in the absorbance of the compound-supplemented group (compound+rhIGF-1) relative to that of a compound-unsupplemented group (control, only rhIGF-1) as 100% was determined in terms of % control.

[2] = test system: Tg2576 mice; test: Cognitive function improving effect in novel object recognition test; assay type: in vivo, mouse; details: 10 mg/kg/day orally for 3 consecutive weeks, female Tg2576 mice; recovery ratio relative to wild type and vehicle
Procedure: Eight- to 9-month-old female Tg2576 mice were used, and wild-type littermates were used as control mice. All the mice were raised in a room having a temperature of 23±3° C. and 12-hour light/dark cycles (light phase: 7 a.m. to 7 p.m.) and allowed to freely take food (Oriental Yeast Co., Ld.) and water.
The body weights and blood glucose levels of the Tg2576 mice were measured, and these mice were divided (n=11-15) so that there was no difference among groups. 10 mg/kg/day compound or vehicle (0.5% methylcellulose solution, Wako Pure Chemical Industries, Ltd.) was orally administered to each mouse for 3 consecutive weeks. The following novel object recognition test was conducted (acquisition trial and retention trial were carried under blind): 4 or 5 mice in one cage were placed in a box of 30×30×30 cm and acclimatized for 30 minutes in the absence of objects. On the next day, two identical objects were placed in diagonally opposite corners of the box. The mice were placed in the box, and the time spent exploring the objects for 5 minutes was recorded (acquisition trial). 24 hours later, one of the objects was in turn replaced by a novel one, and the same test as the acquisition trial was conducted (retention trial). During the test, places were appropriately changed between the two objects to minimize environmental/behavioral psychological factors. The ratio of the time spent exploring the novel object to the whole exploring time was calculated as an index showing cognitive functions and used as preference index (PI). Furthermore, a recovery ratio was calculated according to the following formula:
[Recovery ratio]=[[PI of Tg2576 mice treated by each compound]−[PI of Tg2576 mice treated by vehicle]]/[[PI of wild type mice]−[PI of Tg2576 mice treated by vehicle]]×100(%).
In this context, individuals that explored neither of the objects in the acquisition trial and the retention trial were excluded from this test.

[3] = test system: Akt; test: Akt protein degradation inhibitory effect in rat mixed glial culture (Western blot); assay type: cell-based; details: 1 μM compound + rhIGF-1 100 ng/ml, 10 minutes; unsupplemented = 100%, only rhIGF-1 = 0%; Akt corrected with ERK
Procedure: The mixed glial cells used in Experimental Example 1 were inoculated at a concentration of 4×10^6 cells/well to a 6-well plate coated with type I collagen (AGC Techno Glass Co., Ltd.). The cells were cultured in a growth medium (D-MEM/F12 containing 10% FES and PS) at 37° C. for 4 days under 5% CO2 conditions. Then, the medium was replaced by a serum-free medium (D-MEM/F12 containing PS), and the cells were cultured at 37° C. for 4 days under 5% CO2 conditions to remove serum.
Next, rhIGF-1 (R&D Systems, 291-G1-250, final concentration: 100 ng/ml) and 1 μM compound were added thereto and reacted for 10 minutes in a temperature-controlled water bath set to 37° C. […]
Proteins were collected from the cell extracts using trichloroacetic acid and quantified according to the Lowry method. […] The cell extracts were diluted with RIPA so that the protein levels were constant among the test solutions on the basis of the measured values (10 μg/lane). […] Bands were detected using ImmunoStar reagent (Wako Pure Chemical Industries, Ltd., 291-55203) and an X-ray film. The results were quantified using GS-800 Calibrated Densitometer manufactured by Bio-Rad Laboratories, Inc., and band intensity was digitized by multiplying the absorbance of the Akt- or ERK-1&2-derived band by an area. […]

Compound	activity at 1 µM [1] [%]	Preference index (% recovery) [2] [%]	Akt degradation inhibitory rate (%) [3] [%]
COc1ccc(N2CCN(c3ccc(F)cc3)CC2)c(-c2ccc(N(C)C)cc2)n1 [Example 12, 4-{3-[4-(4-fluorophenyl)piperazin-1-yl]-6-methoxypyridin-2-yl}-N,N-dimethylaniline]	345	70.3	–
COc1ccc(N2CCN(c3ccc(OC)nc3-c3ccc(N(C)C)cc3)CC2)cc1 [Example 19, 4-{6-methoxy-3-[4-(4-methoxyphenyl)piperazin-1-yl]pyridin-2-yl}-N,N-dimethylaniline]	263	118.2	97
COc1ccc(N2CCN(c3ccc(C)cc3)CC2)c(-c2ccc(N(C)C)cc2)n1 [Example 25, 4-{6-methoxy-3-[4-(4-methylphenyl)piperazin-1-yl]pyridin-2-yl}-N,N-dimethylaniline]	276	97.0	140
CCOc1ccc(-c2nc(OC)ccc2N2CCN(c3ccc(OC)cc3)CC2)cc1 [Example 55, 1-[2-(4-ethoxyphenyl)-6-methoxypyridin-3-yl]-4-(4-methoxyphenyl)piperazine]	316	19.8	–
COc1ccc(N2CCN(c3ccc(OC)nc3-c3ccc(N4CCOCC4)cc3)CC2)cc1 [Example 174, 4-(4-{6-methoxy-3-[4-(4-methoxyphenyl)piperazin-1-yl]pyridin-2-yl}phenyl)morpholine]	390	–	–
